Consider 16 compounds from patent publication US8017606B2, “Quinoline derivatives as antibacterial agents” (Janssen Pharmaceutica NV, priority 2005, dated 2011).

Test in all cases: Microtitre plate assay, IC90 determination
What all share (assay type): cell-based

The test system of experiment [1] is Enterococcus faecalis (ATCC29212). Particulars: 90% inhibitory concentration for bacterial growth, 37° C., resazurin fluorescence, read-out: IC90 (μg/ml) EFA 29212. The protocol: (§1) The bacteria used in this study were grown overnight in flasks containing 100 ml Mueller-Hinton Broth (Becton Dickinson—cat. no. 275730) in sterile de-ionized water, with shaking, at 37° C. Stocks (0.5 ml/tube) were stored at −70° C. until use. Bacteria titrations were performed in microtiter plates and colony forming units (CFUs) were determined. In general, an inoculum level of approximately 100 CFUs was used for susceptibility testing.
(§2) Anti Bacterial Susceptibility Testing: IC90 Determination
(§3) Flat-bottom, sterile 96-well plastic microtiter plates were filled with 180 μl of sterile deionized water, supplemented with 0.25% BSA. Subsequently, stock solutions (7.8×final test concentration) of compounds were added in 45 μl volumes in column 2 Serial five-fold dilutions (45 μl in 180 μl) were made directly in the microtiter plates from column 2 to reach column 11. Untreated control samples with (column 1) and without (column 12) inoculum were included in each microtiter plate. Depending on the bacteria type, approximately 10 to 60 CFU per well of bacteria inoculum (100 TCID50), in a volume of 100 μl in 2.8× Mueller-Hinton broth medium, was added to the rows A to H, except column 12. The same volume of broth medium without inoculum was added to column 12 in row A to H. The cultures were incubated at 37° C. for 24 hours under a normal atmosphere (incubator with open air valve and continuous ventilation). At the end of incubation, one day after inoculation, the bacterial growth was quantitated fluorometrically. Therefore resazurin (0.6 mg/ml) was added in a volume of 20 μl to all wells […], and the plates were re-incubated overnight. A change in colour from blue to pink indicated the growth of bacteria.
(§4) The fluorescence was read in a computer-controlled fluorometer (Cytofluor Biosearch) at an excitation wavelength of 530 nm and an emission wavelength of 590 nm. The % growth inhibition achieved by the compounds was calculated according to standard methods. The IC90 (expressed in μg/ml) was defined as the 90% inhibitory concentration for bacterial growth.
For orientation: Alamar Blue is a resazurin reagent that responds to reducing activity.

Experiment [2] concerns Bacillus subtilis (ATCC43639). Particulars: 90% inhibitory concentration for bacterial growth, 37° C., resazurin fluorescence, read-out: IC90 (μg/ml) BSU 43639. The protocol:
as §1, §2, §3, §4

In experiment [3] the test system is Staphylococcus aureus (ATCC25923). As to conditions: 90% inhibitory concentration for bacterial growth, 37° C., resazurin fluorescence, read-out: IC90 (μg/ml) STA 25923. Here is the method:
as §1, §2, §3, §4

In experiment [4] the test system is Pseudomonas aeruginosa (ATCC27853). As to conditions: 90% inhibitory concentration for bacterial growth, 37° C., resazurin fluorescence, read-out: IC90 (μg/ml) PAE 27853. Here is the method:
as §1, §2, §3, §4

For experiment [5], the system named is Listeria monocytogenes (ATCC49594). Particulars: 90% inhibitory concentration for bacterial growth, 37° C., resazurin fluorescence, read-out: IC90 (μg/ml) LMO 49594. The protocol: as §1, §2, §3, §4
Experiment [6] relates to Streptococcus pyogens (ATCC8668). As to conditions: 90% inhibitory concentration for bacterial growth, 37° C., resazurin fluorescence, read-out: IC90 (μg/ml) SPY 8668. The protocol:
as §1, §2, §3, §4

In experiment [7] the test system is Streptococcus pneumoniae (ATCC6305). As to conditions: 90% inhibitory concentration for bacterial growth, 37° C., resazurin fluorescence, read-out: IC90 (μg/ml) SPN 6305. Here is the method: as §1, §2, §3, §4
In experiment [8] the test system is methicilline resistant Staphylococcus aureus (MRSA) (a clinical isolate from the University of Antwerp). Particulars: 90% inhibitory concentration for bacterial growth, 37° C., resazurin fluorescence, read-out: IC90 (μg/ml) STA RMETHIC. Here is the method: as §1, §2, §3, §4
In experiment [9] the test system is Staphylococcus aureus (ATCC29213). As to conditions: 90% inhibitory concentration for bacterial growth, 37° C., resazurin fluorescence, read-out: IC90 (μg/ml) STA 29213. Here is the method:
as §1, §2, §3, §4

Experiment [10] has as its system Streptococcus mutans (ATCC33402). Particulars: 90% inhibitory concentration for bacterial growth, 37° C., resazurin fluorescence, read-out: IC90 (μg/ml) SMU 33402. Here is the method: as §1, §2, §3, §4

≈ marks a conversion by molar mass, not a printed value.

`COc1nc2cccc(C(O)(CCN(C)C)c3ccccc3)c2cc1-c1ccccc1` (stereo not shown) [Compound 4]: the IC90 in experiment [1], in [2], in experiment [3], in experiment [4], in [5] and in experiment [6] was 10.4 µg/mL (≈ 25.2 µM) each time. For the same compound, the IC90 in experiment [7], in [8] and in [9] was 10.4 µg/mL (≈ 25.2 µM) in each case.
As to `COc1nc2cccc(C(O)(CCN(C)C)c3ccco3)c2cc1-c1ccccc1` (stereo not shown) [Compound 5], the IC90 in experiment [1], in experiment [2], in experiment [3], in experiment [4], in [5] and in [6] was 10.1 µg/mL (≈ 25.1 µM) in each case. Further, the IC90 in experiment [7] worked out at 10.1 µg/mL (≈ 25.1 µM); in experiment [8], 9 µg/mL (≈ 22.4 µM); in experiment [9], 10.1 µg/mL (≈ 25.1 µM).
For `COc1nc2ccc(C(O)(CCN(C)C)c3cc(F)cc(F)c3)cc2cc1Cc1ccc(C)cc1` (stereo not shown) [Compound 7], the IC90 in experiment [1] came out at 10.7 µg/mL (≈ 22.5 µM); in [2] it was 37.9 µg/mL (≈ 79.5 µM); in [3], 7.6 µg/mL (≈ 15.9 µM); in [4] it was 10.7 µg/mL (≈ 22.5 µM); in experiment [5], 7.6 µg/mL (≈ 15.9 µM); in [6], 12 µg/mL (≈ 25.2 µM). Further, the IC90 worked out at 12 µg/mL (≈ 25.2 µM) in experiment [7], 37.9 µg/mL (≈ 79.5 µM) in experiment [8] and 9.5 µg/mL (≈ 19.9 µM) in [9].
`COc1cc(-c2ccccc2)c2cc(C(O)(CCN(C)C)c3cc(F)cc(F)c3)ccc2n1` (stereo not shown) [Compound 11]: the IC90 in experiment [1] turned out to be 11.3 µg/mL (≈ 25.2 µM); in experiment [2], 11.3 µg/mL (≈ 25.2 µM); in experiment [3] it was 11.3 µg/mL (≈ 25.2 µM); in [4], 11.3 µg/mL (≈ 25.2 µM); in experiment [5] it was 11.3 µg/mL (≈ 25.2 µM); in [6] it was 9 µg/mL (≈ 20.1 µM). Moreover, the IC90 in [7], in experiment [8] and in [9] was 11.3 µg/mL (≈ 25.2 µM) in each case.
`COc1nc2c(C(O)(CCN(C)C)c3ccco3)cc(Br)cc2cc1-c1ccccc1` (stereo not shown) [Compound 13]: the IC90 in [1], in experiment [2], in experiment [3], in [4], in experiment [5] and in experiment [6] was 12.1 µg/mL (≈ 25.1 µM) throughout. The IC90 in [7] was found to be 10.8 µg/mL (≈ 22.4 µM); in [8], 12.1 µg/mL (≈ 25.1 µM); in [9] it was 12.1 µg/mL (≈ 25.1 µM).
As to `COc1cc(-c2ccccc2)c2cc(C(O)(CCN(C)C)c3ccccc3)ccc2n1` (stereo not shown) [Compound 14], the IC90 in experiment [1], in experiment [2], in [3], in experiment [4], in experiment [5] and in [6] was 10.4 µg/mL (≈ 25.2 µM) throughout. Moreover, the IC90 in [7], in experiment [8] and in [9] was 10.4 µg/mL (≈ 25.2 µM) in each case.
Regarding `COc1cc(-c2ccccc2)c2cc(C(O)(CCN(C)C)c3ccco3)ccc2n1` (stereo not shown) [Compound 15], the IC90 in experiment [1], in experiment [2], in experiment [3], in [4], in experiment [5] and in experiment [6] was 10.1 µg/mL (≈ 25.1 µM) each time. In addition, the IC90 in experiment [7], in experiment [8] and in experiment [9] was 10.1 µg/mL (≈ 25.1 µM) each time.
`COc1cc(-c2ccccc2)c2cc(C(O)(CCN(C)C)c3ccccn3)ccc2n1` (stereo not shown) [Compound 16]: the IC90 in experiment [1], in experiment [2], in experiment [3], in experiment [4], in experiment [5] and in experiment [6] was 10.4 µg/mL (≈ 25.1 µM) each time. The IC90 in experiment [7], in [8] and in experiment [9] was 10.4 µg/mL (≈ 25.1 µM) each time.
`CN(C)CCC(O)(c1cc(F)cc(F)c1)c1ccc2nc(-c3cccnc3)cc(-c3ccccc3)c2c1` (stereo not shown) [Compound 42]: the IC90 in [1] amounted to 12.5 µg/mL (≈ 25.2 µM); in [2], 12.5 µg/mL (≈ 25.2 µM); in experiment [3], 9.9 µg/mL (≈ 20 µM); in [4], 12.5 µg/mL (≈ 25.2 µM); in experiment [5] it was 39.4 µg/mL (≈ 79.5 µM); in experiment [6] it was 12.5 µg/mL (≈ 25.2 µM). Also, the IC90 in experiment [7] stood at 12.5 µg/mL (≈ 25.2 µM); in [8], 49.6 µg/mL (≈ 100 µM); in experiment [9], 39.4 µg/mL (≈ 79.5 µM).
As to `CN(C)CCC(O)(c1ccccc1)c1ccc2nc(-c3cccnc3)cc(-c3ccccc3)c2c1` (stereo not shown) [Compound 43], the IC90 in experiment [1], in [4], in [6], in [7] and in experiment [9] was 11.5 µg/mL (≈ 25 µM) each time.
As to `CN(C)CCC(O)(c1ccc2nc(-c3cccnc3)cc(-c3ccccc3)c2c1)c1ccco1` (stereo not shown) [Compound 44], the IC90 in experiment [1], in experiment [2], in experiment [3], in experiment [4], in [5] and in experiment [6] was 11.3 µg/mL (≈ 25.1 µM) each time. The IC90 in experiment [7], in experiment [8] and in [9] was 11.3 µg/mL (≈ 25.1 µM) each time.
Turning to `CN(C)CCC(O)(c1ccccc1)c1ccc2nc(N(C)C)cc(-c3ccccc3)c2c1` (stereo not shown) [Compound 47], the IC90 in [1], in experiment [2], in experiment [3], in experiment [4], in [5] and in experiment [6] was 10.7 µg/mL (≈ 25.1 µM) each time. Besides, the IC90 in experiment [7], in experiment [8] and in experiment [9] was 10.7 µg/mL (≈ 25.1 µM) throughout.
Turning to `CC(=O)c1ccc(N2CCN(c3nc4c(C(O)(CCN(C)C)c5ccccc5)cc(Br)cc4cc3Cc3ccccc3)CC2)cc1` (stereo not shown) [Compound 54], the IC90 in experiment [1], in experiment [4], in [6], in experiment [7], in experiment [10] and in experiment [9] was 17 µg/mL (≈ 25.1 µM) each time.
In the case of `CN(C)CCC(O)(c1ccccc1)c1cc(-c2cccnc2)cc2cc(-c3ccccc3)c(-c3cccnc3)nc12` (stereo not shown) [Compound 65], the IC90 in [1], in experiment [2], in experiment [3], in experiment [4], in [5] and in experiment [6] was 13.5 µg/mL (≈ 25.2 µM) each time. For the same compound, the IC90 in [7], in [10], in experiment [8] and in experiment [9] was 13.5 µg/mL (≈ 25.2 µM) each time.
In the case of `COc1nc2c(C(O)(CCN(C)C)c3cccs3)cc(-c3cccnc3)cc2cc1Cc1ccccc1` (stereo not shown) [Compound 67], the IC90 in [1], in experiment [2], in [3], in experiment [4], in experiment [5] and in experiment [6] was 51 µg/mL (≈ 100 µM) each time. Also, the results for the IC90 in experiment [7], in experiment [8] and in experiment [9] were 22.8 µg/mL (≈ 44.7 µM), 51 µg/mL (≈ 100 µM) and 51 µg/mL (≈ 100 µM), respectively.
`COc1nc2ccccc2c(CC(O)(CCN(C)C)c2cccc3ccccc23)c1Cc1ccccc1` (stereo not shown) [Compound 70]: the IC90 in experiment [1] stood at 49.1 µg/mL (≈ 100 µM); in experiment [2] it was 12.3 µg/mL (≈ 25.1 µM); in experiment [3], 12.3 µg/mL (≈ 25.1 µM); in experiment [4], 9.8 µg/mL (≈ 20 µM); in experiment [5], 39 µg/mL (≈ 79.5 µM); in [6] it was 9.8 µg/mL (≈ 20 µM). For the same compound, the IC90 in experiment [7] turned out to be 12.3 µg/mL (≈ 25.1 µM); in experiment [10], 9.8 µg/mL (≈ 20 µM); in [8], 12.3 µg/mL (≈ 25.1 µM); in [9] it was 12.3 µg/mL (≈ 25.1 µM).
